Source: ChEMBL document CHEMBL1201862, “PubChem BioAssay data set” (2004)
“And” between values parts separate entries of the source, which are not always exact repeats. Equal values may be shown once.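 Dose response: 5 concentrations. Exposure: 48 h. Format: 96-well plates. Endpoint: linear interpolation; highest concentration if not reached. GI50: concentration for 50% inhibition of growth.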 The source made the active and inactive calls. Cut-off read from the data, not from the text of the source: active = GI50 up to about 1.1 µM and inactive = higher.

Legend:
Assay in all cases: NCI-60 cell line screen, 48 h
[1] = test system: DLD-1
[2] = test system: DMS-114
[3] = test system: DMS-273
[4] = test system: HOP-18
[5] = test system: KM-20L2
[6] = test system: M19-MEL
[7] = test system: RXF 631
[8] = test system: SNB-78
[9] = test system: XF498

SMILES | GI50 [1] | GI50 [2] | GI50 [3] | GI50 [4] | GI50 [5] | GI50 [6] | GI50 [7] | GI50 [8] | GI50 [9]
Cc1cc(N(CCC#N)CCC#N)ccc1/C=C1\N=C(c2cc([N+](=O)[O-])ccc2Cl)N(c2cccc(Cl)c2)C1=O | > 100 µM (inactive) | > 100 µM (inactive) | > 100 µM (inactive) | > 100 µM (inactive) | > 100 µM (inactive) | > 100 µM (inactive) | > 100 µM (inactive) | > 100 µM (inactive) | –
COC(=O)CSc1ccccc1 | > 100 µM (inactive) | – | > 100 µM (inactive) | > 100 µM (inactive) | > 100 µM (inactive) | > 100 µM (inactive) | > 100 µM (inactive) | > 100 µM (inactive) | > 100 µM (inactive)
O=c1cc(-c2ccccc2)oc2cc(OCCSCCCCCCCCCCSCCOc3ccc4c(=O)cc(-c5ccccc5)oc4c3)ccc12 | > 100 µM (inactive) | > 100 µM (inactive) | – | > 100 µM (inactive) | > 100 µM (inactive) | > 100 µM (inactive) | > 100 µM (inactive) | 68.2 µM (inactive) | –
COc1cc(Nc2cnc3ccc(C(F)(F)F)cc3n2)cc(OC)c1OC | – | – | 25.5 µM (inactive) | > 100 µM (inactive) | 3.79 µM (inactive) | 13.6 µM (inactive) | – | > 100 µM (inactive) | –
COC(=O)CSc1nnc(-c2ccc(O)c([N+](=O)[O-])c2)[nH]1 | > 100 µM (inactive) | – | > 100 µM (inactive) | – | > 100 µM (inactive) | – | > 100 µM (inactive) | – | > 100 µM (inactive)
O=C1[C@@H]2C(c3ccccc3F)=NO[C@@H]2C(=O)N1c1ccc(Cc2ccc(N3C(=O)[C@H]4C(c5ccccc5F)=NO[C@H]4C3=O)cc2)cc1 | > 100 µM (inactive) | > 100 µM (inactive) | > 100 µM (inactive) | > 100 µM (inactive) | > 100 µM (inactive) | > 100 µM (inactive) | > 100 µM (inactive) | > 100 µM (inactive) | > 87.3 µM (inactive)
O=C(O)c1[nH]c(C(=O)O)c(CC(F)(F)C(F)(F)C(F)(F)F)c1CC(F)(F)C(F)(F)C(F)(F)F | > 100 µM (inactive) | > 100 µM (inactive) | > 100 µM (inactive) | > 100 µM (inactive) | > 100 µM (inactive) | > 100 µM (inactive) | > 100 µM (inactive) | > 100 µM (inactive) | > 100 µM (inactive)
O=[N+]([O-])c1ccc(Cl)cc1C1SCc2nc3ccccc3n21 (stereo unspecified) | 37.2 µM (inactive) | 35.6 µM (inactive) | 31.6 µM (inactive) | 13 µM (inactive) | > 100 µM (inactive) | 61.7 µM (inactive) | 37.1 µM (inactive) | 42.9 µM (inactive) | 65.5 µM (inactive)
COC(=O)/C(=C/c1ccc(OC)cc1)NC(=O)c1ccccc1 | > 100 µM (inactive) | > 100 µM (inactive) | – | – | > 100 µM (inactive) | – | – | – | –
O=C1/C(=C\c2ccccc2)C2/C(=C\c3ccccc3)C(=O)/C(=C\c3ccccc3)C2/C1=C\c1ccccc1 (stereo unspecified) | 1.22 µM (inactive) | 1.73 µM (inactive) | 0.964 µM (active) | 48 µM (inactive) | 1.78 µM (inactive) | 1.53 µM (inactive) | 3.12 µM (inactive) | – | –
Nc1ncnc2c1ncn2C1CC(OCc2ccccc2[N+](=O)[O-])C(CO)O1 (stereo unspecified) | 23.7 µM (inactive) | 16.4 µM (inactive) | 18.4 µM (inactive) | 26.6 µM (inactive) | 22.2 µM (inactive) | 16.1 µM (inactive) | – | 18.2 µM (inactive) | 42.2 µM (inactive)
CCCCOC1CC2(c3ccc(OC)cc3)C(=O)c3ccccc3N2O1 (stereo unspecified) | – | 30 µM (inactive) | > 10 µM (inactive) | – | > 10 µM (inactive) | > 10 µM (inactive) | > 10 µM (inactive) | > 10 µM (inactive) | > 10 µM (inactive)
COc1ccc(/C=c2/sc3n(c2=O)NC(c2ccc(Cl)cc2)NN=3)cc1 (stereo unspecified) | > 100 µM (inactive) | 58.5 µM (inactive) | > 100 µM (inactive) | – | > 100 µM (inactive) | > 100 µM (inactive) | – | > 100 µM (inactive) | 51.8 µM (inactive)
COc1ccc(OC)c(/C=C/[N+](=O)[O-])c1 | 2.88 µM (inactive) | 4.74 µM (inactive) | 2.61 µM (inactive) | 1.85 µM (inactive) | 4.69 µM (inactive) | 2.39 µM (inactive) | 2.83 µM (inactive) | 6.84 µM (inactive) | 2.94 µM (inactive)
O=C(O)Cn1c(=O)[nH]c(=O)c2c1ncn2Cc1ccccc1 | > 100 µM (inactive) | > 100 µM (inactive) | > 100 µM (inactive) | – | > 100 µM (inactive) | > 100 µM (inactive) | > 100 µM (inactive) | > 100 µM (inactive) | > 100 µM (inactive)
CCCCCC(=O)Cc1cc(OC)cc2c1C(=O)Oc1cc(O)c(C(=O)O)c(CC(=O)CCCCC)c1O2 | 35.6 µM (inactive) | 33.9 µM (inactive) | 32.1 µM (inactive) | – | 49.4 µM (inactive) | 26.2 µM (inactive) | 35.6 µM (inactive) | 44.4 µM (inactive) | > 100 µM (inactive)
C=CCN1/C(=C2\SC(=S)N(c3ccc(C)cc3)C2=O)Sc2c1nc[nH]c2=O | > 100 µM (inactive) | 76.9 µM (inactive) | > 100 µM (inactive) | – | > 100 µM (inactive) | > 100 µM (inactive) | – | > 100 µM (inactive) | > 100 µM (inactive)
Nc1nnc2c(-c3ccccc3)n[nH]c2n1 | – | > 100 µM (inactive) | 50.9 µM (inactive) | – | 49.8 µM (inactive) | – | – | 49.3 µM (inactive) | –
COc1nc(/C=N/NC(N)=S)nc(OC)n1 | > 100 µM (inactive) | 47.5 µM (inactive) | 56.9 µM (inactive) | > 100 µM (inactive) | 35.4 µM (inactive) | 65.3 µM (inactive) | 44.2 µM (inactive) | > 100 µM (inactive) | > 100 µM (inactive)
CC(C)OP(=S)(NC(=S)c1ccccc1)OC(C)C | > 100 µM (inactive) | 78 µM (inactive) | > 100 µM (inactive) | – | > 100 µM (inactive) | – | – | > 100 µM (inactive) | > 100 µM (inactive)
NCCCC1NC(=O)/C(=C(O)/C=C/C2CCC[C@@H]2CC2SCCS2)C1=O (stereo partly specified) | > 100 µM (inactive) | 86.3 µM (inactive) | 74.8 µM (inactive) | 82.6 µM (inactive) | > 100 µM (inactive) | > 100 µM (inactive) | – | – | –
COC(=O)CC(C(C(C)=O)C(=O)OCc1ccccc1)N1C(=O)OC(c2ccccc2)C1c1ccccc1 (stereo unspecified) | 64.7 µM (inactive) | 30.5 µM (inactive) and 39.4 µM (inactive) | > 100 µM (inactive) and 78.5 µM (inactive) | – | – | 85.1 µM (inactive) and 73.8 µM (inactive) | 89.7 µM (inactive) | – | 67.1 µM (inactive)
Cc1nc(-c2nc(C)c(C(=O)NNC(=O)C[n+]3ccccc3)s2)sc1C(=O)NNC(=O)C[n+]1ccccc1 | 19.3 µM (inactive) | 66.8 µM (inactive) | – | – | > 100 µM (inactive) | > 100 µM (inactive) | – | 54.8 µM (inactive) | –
COc1ccc(C2CC(=O)c3c(O)cc(O)cc3O2)cc1O (stereo unspecified) | > 100 µM (inactive) | > 100 µM (inactive) | > 100 µM (inactive) | – | > 100 µM (inactive) | > 100 µM (inactive) | > 100 µM (inactive) | > 100 µM (inactive) | > 100 µM (inactive)
COc1ccc(NCc2cc(OC)c(OC)c(OC)c2)cc1 | 0.421 µM (active) | – | 0.178 µM (active) | – | 0.238 µM (active) | – | – | – | –
